{"source": "paper PMC12655351", "about": "“Synthesis and Anticancer Activity Evaluation of New 5-((5-Nitrofuran-2-yl)allylidene)-2-thioxo-4-thiazolidinones” (Pharmaceuticals, 2025)", "key": {"[1]": {"test_system": "MCF-7", "experiment": "[3H]-thymidine incorporation assay", "type": "cell-based", "details": "Homo sapiens, MCF7; MCF-7, 24 h of treatment", "summary_of_the_method": "(§1)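 Cells treated 24 h with compound at 1, 5, 10 μM (MCF-7) or 5, 15, 30 μM (MDA-MB-231), in triplicate, then pulsed with 0.5 μCi [3H]-thymidine for 4 h at 37 °C. TCA-precipitated, lysed cells counted by scintillation; uptake expressed as percent of control.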"}, "[2]": {"test_system": "MDA-MB-231", "experiment": "[3H]-thymidine incorporation assay", "type": "cell-based", "details": "Homo sapiens; MDA-MB-231, 24 h of treatment", "summary_of_the_method": "as §1"}, "[3]": {"test_system": "CCRF-CEM", "details": "48 h"}, "[4]": {"test_system": "MOLT-4", "details": "MOLT-4, 48 h"}, "[5]": {"test_system": "SF-539", "details": "SF-539, 48 h"}, "[6]": {"test_system": "SK-MEL-28", "details": "SK-MEL-28, 48 h"}, "[7]": {"test_system": "TK-10", "details": "TK-10, 48 h"}, "[8]": {"test_system": "PC-3", "details": "PC-3, 48 h"}, "[9]": {"test_system": "Leukemia", "details": "Leukemia subpanel"}, "[10]": {"test_system": "Non-small cell lung cancer", "details": "Non-small cell lung cancer subpanel"}, "[11]": {"test_system": "CNS cancer", "details": "CNS cancer subpanel"}, "[12]": {"test_system": "K-562", "experiment": "cells", "details": "Homo sapiens, K562, 48 h"}, "[13]": {"test_system": "SR", "experiment": "cells", "details": "Homo sapiens, 48 h"}, "[14]": {"test_system": "HCT-116", "experiment": "cells", "details": "Homo sapiens, HCT-116, 48 h"}, "[15]": {"test_system": "A498", "experiment": "cells", "details": "Homo sapiens, A498, 48 h"}, "[16]": {"test_system": "UO-31", "experiment": "cells", "details": "Homo sapiens, UO-31, 48 h"}, "[17]": {"test_system": "DU-145", "experiment": "cells", "details": "Homo sapiens, DU-145, 48 h"}, "[18]": {"test_system": "BT-549", "experiment": "cells", "details": "Homo sapiens, BT-549, 48 h"}, "[19]": {"test_system": "Leukemia", "experiment": "cells", "details": "Homo sapiens"}, "[20]": {"test_system": "Non-small cell lung cancer", "experiment": "cells", "details": "Homo sapiens"}, "[21]": {"test_system": "Breast cancer", "experiment": "cells", "details": "Homo sapiens"}, "[22]": {"test_system": "HOP-92", "experiment": "NCI-60 SRB screen", "details": "HOP-92, 48 h"}, "[23]": {"test_system": "NCI-H266", "experiment": "NCI-60 SRB screen"}, "[24]": {"test_system": "SF-295", "experiment": "NCI-60 SRB screen", "details": "SF-295, 48 h"}, "[25]": {"test_system": "MALME-3M", "experiment": "NCI-60 SRB screen", "details": "48 h"}, "[26]": {"test_system": "UACC-62", "experiment": "NCI-60 SRB screen", "details": "UACC-62, 48 h"}, "[27]": {"test_system": "IGROV1", "experiment": "NCI-60 SRB screen"}, "[28]": {"test_system": "Colon cancer", "experiment": "NCI-60 SRB screen, subpanel"}}}
{"smiles": "O=C(O)C(c1ccccc1)N1C(=O)/C(=C/C=C/c2ccc([N+](=O)[O-])o2)SC1=S", "note": "(stereo not drawn) [9b, 2-((Z)-5-((E)-3-(5-Nitrofuran-2-yl)allylidene)-4-oxo-2-thioxothiazolidin-3-yl)-2-phenylacetic acid]", "values": [{"measurement": "IC50", "setting": "[1]", "result": 7.98, "unit": "µM"}, {"measurement": "IC50", "setting": "[2]", "result": 7.53, "unit": "µM"}, {"measurement": "TGI", "setting": "[3]", "result": 13.3, "unit": "µM"}, {"measurement": "TGI", "setting": "[4]", "result": 39.9, "unit": "µM"}, {"measurement": "TGI", "setting": "[5]", "result": 24.7, "unit": "µM"}, {"measurement": "TGI", "setting": "[6]", "result": 23.4, "unit": "µM"}, {"measurement": "TGI", "setting": "[7]", "result": 30.0, "unit": "µM"}, {"measurement": "TGI", "setting": "[8]", "result": 29.9, "unit": "µM"}, {"measurement": "MG_MID TGI", "setting": "[9]", "result": 24.2, "unit": "µM"}, {"measurement": "MG_MID TGI", "setting": "[10]", "result": 31.8, "unit": "µM"}, {"measurement": "MG_MID TGI", "setting": "[11]", "result": 21.7, "unit": "µM"}, {"measurement": "GI50", "setting": "[12]; K-562, 48 h", "result": 3.45, "unit": "µM"}, {"measurement": "CC50", "setting": "[12]; read-out: LC50", "result": "> 100", "unit": "µM"}, {"measurement": "GI50", "setting": "[13]", "result": 3.15, "unit": "µM"}, {"measurement": "CC50", "setting": "[13]; read-out: LC50", "result": "> 100", "unit": "µM"}, {"measurement": "GI50", "setting": "[14]", "result": 2.68, "unit": "µM"}, {"measurement": "CC50", "setting": "[14]; read-out: LC50, HCT-116, 48 h", "result": "> 100", "unit": "µM"}, {"measurement": "GI50", "setting": "[15]", "result": 20.8, "unit": "µM"}, {"measurement": "GI50", "setting": "[16]", "result": 10.8, "unit": "µM"}, {"measurement": "CC50", "setting": "[16]; read-out: LC50, UO-31, 48 h", "result": 50.7, "unit": "µM"}, {"measurement": "GI50", "setting": "[17]", "result": 11.5, "unit": "µM"}, {"measurement": "CC50", "setting": "[17]; read-out: LC50, DU-145, 48 h", "result": 48.8, "unit": "µM"}, {"measurement": "GI50", "setting": "[18]", "result": 2.46, "unit": "µM"}, {"measurement": "CC50", "setting": "[18]; read-out: LC50, BT-549, 48 h", "result": 35.7, "unit": "µM"}, {"measurement": "GI50", "setting": "[19]; read-out: MG_MID GI50", "result": 6.64, "unit": "µM"}, {"measurement": "CC50", "setting": "[19]; read-out: MG_MID LC50", "result": "> 100", "unit": "µM"}, {"measurement": "GI50", "setting": "[20]; read-out: MG_MID GI50", "result": 11.1, "unit": "µM"}, {"measurement": "CC50", "setting": "[20]; read-out: MG_MID LC50", "result": 73.2, "unit": "µM"}, {"measurement": "GI50", "setting": "[21]; read-out: MG_MID GI50", "result": 5.89, "unit": "µM"}, {"measurement": "CC50", "setting": "[21]; read-out: MG_MID LC50", "result": 49.4, "unit": "µM"}, {"measurement": "TGI", "setting": "[22]", "result": 27.5, "unit": "µM"}, {"measurement": "GI50", "setting": "[22]; Homo sapiens", "result": 13.4, "unit": "µM"}, {"measurement": "CC50", "setting": "[22]; Homo sapiens, read-out: LC50, HOP-92, 48 h", "result": 56.2, "unit": "µM"}, {"measurement": "GI50", "setting": "[23]; Homo sapiens, 48 h, NCI-H266, 48 h", "result": 12.2, "unit": "µM"}, {"measurement": "CC50", "setting": "[23]; Homo sapiens, 48 h, read-out: LC50, NCI-H266, 48 h", "result": 89.7, "unit": "µM"}, {"measurement": "TGI", "setting": "[23]; NCI-H266, 48 h", "result": 33.1, "unit": "µM"}, {"measurement": "GI50", "setting": "[24]; Homo sapiens", "result": 17.4, "unit": "µM"}, {"measurement": "CC50", "setting": "[24]; Homo sapiens, read-out: LC50, SF-295, 48 h", "result": 58.4, "unit": "µM"}, {"measurement": "TGI", "setting": "[24]", "result": 31.9, "unit": "µM"}, {"measurement": "GI50", "setting": "[25]; Homo sapiens, Malme-3M", "result": 5.4, "unit": "µM"}, {"measurement": "CC50", "setting": "[25]; Homo sapiens, Malme-3M, read-out: LC50, MALME-3M, 48 h", "result": 48.8, "unit": "µM"}, {"measurement": "TGI", "setting": "[25]; MALME-3M", "result": 18.7, "unit": "µM"}, {"measurement": "GI50", "setting": "[26]; Homo sapiens", "result": 2.69, "unit": "µM"}, {"measurement": "CC50", "setting": "[26]; Homo sapiens, read-out: LC50, UACC-62, 48 h", "result": 35.3, "unit": "µM"}, {"measurement": "TGI", "setting": "[26]", "result": 11.1, "unit": "µM"}, {"measurement": "GI50", "setting": "[27]; Homo sapiens, IGROV-1, 48 h, IGROV1, 48 h", "result": 14.3, "unit": "µM"}, {"measurement": "CC50", "setting": "[27]; Homo sapiens, IGROV-1, 48 h, read-out: LC50, IGROV1, 48 h", "result": 66.6, "unit": "µM"}, {"measurement": "TGI", "setting": "[27]; IGROV1, 48 h", "result": 30.8, "unit": "µM"}, {"measurement": "MG_MID TGI", "setting": "[28]; Colon cancer subpanel", "result": 19.4, "unit": "µM"}, {"measurement": "GI50", "setting": "[28]; Homo sapiens, read-out: MG_MID GI50", "result": 6.75, "unit": "µM"}, {"measurement": "CC50", "setting": "[28]; Homo sapiens, read-out: MG_MID LC50", "result": 66.2, "unit": "µM"}]}
